Drawing on publication PMC8084583, “Monobenzone, a Novel and Potent KDM1A Inhibitor, Suppresses Migration of Gastric Cancer Cells” (Frontiers in Pharmacology, 2021), this text covers IC50 for 1 compound.

The test concerns the target KDM1A (Homo sapiens, UniProt O60341). In words: HRP-coupled fluorometric demethylase assay with recombinant KDM1A (H2O2/HRP counter-screen); dialysis and dilution reversibility; cell thermal shift in MGC-803. Format: biochemical. (In general: The purpose of a counterscreen is to sort out artefacts and off-target activity.)

SMILES strings stand for the structures.

For `Oc1ccc(OCc2ccccc2)cc1` [monobenzone], the IC50 (usually the point on the concentration scale where inhibition reaches its midpoint) is 451 nM.
